# Test results: US10053455B2, “Diazaspiroalkaneone-substituted oxazole derivatives as spleen tyrosine kinase inhibitors” (AB SCIENCE, priority 2014, dated 2018)
# Like-named read-outs stand apart in the source and are kept apart here.
# Tests used:
# [1] = biological target: SYK kinase (Homo sapiens (Human), UniProt P43405); assay: In vitro SYK inhibition assay (HTRF kinase assay); assay type: biochemical
# Procedure: SYK kinase was purified as a full length protein in a baculovirus system near homogeneity. All kinase assays were performed with the Kinase TK (tyrosine kinase) HTRF (Homogeneous Time Resolved Fluorescence) assay developed by Cisbio international. […] Reactions were initiated upon introduction of the enzyme and terminated with the addition of one reaction volume (25 μl) of HTRF detection buffer. Plates were incubated for one hour at room temperature and the time resolved Fluorescence resonance energy transfer signal was measured in a Pherastar FS microplate reader (BMG Labtech).
# Most of the kinases tested in this study were cloned, expressed and purified in the facilities of the inventors. They were expressed either as N-terminus hexahistidine-, hexahistidine-asparagine- or GST-tagged enzymes in a baculovirus or in a Colibacille expression system. Remaining enzymes (JAKs) were purchased from Millipore or Proqinase. For each enzyme, steady state kinetic parameters were determined and validated with known inhibitors.
# The analysis of the effect of compounds on kinase activity was assessed with the HTRF® KinEASE assay (Cisbio International), an immuno-assay based on the quantification of the level of phosphorylation of a biotinylated peptide substrate using anti-phospho-specific antibody labeled with Europium (Eu^3+) cryptate. This assay comprises two steps: —an enzymatic step, during which the peptide substrate, the kinase, ATP, Mg^2+ and/or Mn^2+ are incubated with varying concentration of drug (from 0 to 10 μM); —a detection step, at the end of the reaction (stopped by addition of EDTA which chelates Mg^2+), the antibody anti-phospho peptide-Eu^3+ (emission 620 nm) and streptavidin XL-665 (emission 665 nm) are added to the reaction mix. After incubation, the obtained signal is proportional to the concentration of phosphorylated peptide in the sample. All measurements were performed on a BMG Labtech Pherastar FS apparatus. Results are expressed in delta fluorescence (DF) unit defined as follow DF %=[(ratio−ratio blank)/(ratio blank)]*100, where ratio=(665 nm/620 nm)*10^4. Each experiment was performed in duplicate and repeated two or three times.
# [2] = test system: IL6; assay: FcεRI and Kit-induced IL6 cytokine release in BMMCs; assay type: cell-based, C57BL/6J mice
# Procedure: Murine bone marrow mast cells (BMMCs) are obtained by flushing bone marrow cells from the femurs of C57BL/6J mice, and then cultured for 3-4 weeks in RPMI containing mouse recombinant IL-3 (30 ng/ml). Cells were sensitized overnight in IL3-depleted culture medium with 0.1-0.2 μg/ml anti-DNP-IgE (Sigma-Aldrich D8406). Cells were preincubated with inhibitors for 30 min, and then stimulated with 10 ng/ml antigen (Ag) and/or Stem Cell Factor (SCF) (30 ng/ml). The cells were incubated for 6 h. The supernatants were harvested, and the cytokine content measured using CISBIO IL6 and TNFα HTRF assay (cat#63ADKEBU043 and 6FMTNPEB respectively).
# [3] = WST-1 cell survival/proliferation assay on human cardiomyocytes; assay type: cell-based; conditions: Human Cardiac Myocyte
# Procedure: WST-1 cell survival/proliferation assay (Roche Diagnostic ref No 1644807) was performed on both primary human adult cardiomyocytes and rat neonatal cardiac myocytes.
# Human cardiomyocytes were isolated from normal human ventricle tissue of the adult heart and were able to proliferate for a number of passage. Neonatal ventricular Clonetics® Rat Cardiac Myocytes (P1-3) retained their contractile property and were electrophysiologically active in culture. 1.10^4 primary rat cells or 2-2.5 10^4 adult human cells were plated per well of a 96 wells plates. The cells were allowed to adhere to the plates for 5 days before drug treatment. Treatment was initiated by addition of a 2× drug solution of ½ serial dilutions ranging from 0 to 10 μM. Cells were grown for 48 h at 37° C. and then incubated with 10 μl/well of WST-1 reagent for 4 h at 37° C. The amount of formazan dye formed was quantified by its absorbance at 450 nm using a scanning multiwell spectrophotometer (MultiSkan MS, Thermo-LabSystems, France). A blank well without cells was used as a background control for the spectrophotometer and all assays were performed in triplicate.
# [4] = test system: HepG2 tumor cell line; assay: Mitochondrial ToxGlo assay (ATP production and cytotoxicity); assay type: cell-based; conditions: HepG2, 20 μM, 2 hours
# Procedure: Drug-induced mitochondrial toxicity was evaluated by monitoring oxygen consumption using a Clark oxygen electrode on mitochondria isolated from heart of healthy mouse (Mitologics S.A.S, France). Briefly, isolated mitochondria are placed at 37° C. in a sealed chamber that is exposed to the surface of a Clark oxygen electrode. The presence of oxygen caused the electrode to deliver a current to the oxygen monitor, which amplified the current and converted it to a voltage output that was directly proportional to the concentration of oxygen in the chamber. Drug-induced mitochondrial toxicity was also evaluated by monitoring mitochondrial ATP production using a cell-based assay (Mitochondrial ToxGlo™ assay, Promega Corporation (cat#G8000)). […] The test was performed on HepG2 tumor cell line grown in galactose medium in order to force the cancer cells to produce ATP via oxidative phosphorylation (crabtree effect). Cells were treated for 2 hours with 20 μM drug before analysis of ATP detection (Luminescent signal) and cytotoxicity (Fluorescent signal) as described by manufacturers using PHERAstar and POLARstar OMEGA microplate readers respectively (BMG Labteck Sari).
# [5] = test system: Salmonella typhimurium strain TA100
# Procedure: Mutagenic activity of test compounds and their metabolites (produced by rat liver S9 fraction) was evaluated in the Salmonella typhimurium strains TA100 and TA98 according to the Ames assay (Toxicology in vitro, (2001), 15: 105-114). […] The results are expressed as a mutagenicity ratio in comparison to solvent controls.
# The results are expressed as a ratio of the number of colonies over the number of colonies in the negative control (DMSO).
# [6] = Early bioavailability determination (plasma PK); assay type: in vivo, Sprague Dawley rats; conditions: rat; for AUC: read-out: AUC24
# Procedure: Early screen was conducted to estimate plasma concentrations of test compounds obtained after oral or intravenous administration to Sprague Dawley rats. DMSO was used as vehicle for oral and intravenous administration. In short, 4 male Sprague Dawley rats around 5 weeks old were used. Drugs were administered PO (10 mg/kg) or IV (2 mg/kg). Blood samples were collected at defined time schedule and analysed using LC-MS/MS determination for PK parameters calculations.
# [7] = male, Sprague Dawley, plasma, IV, 2 mg/kg, mean
# [8] = male, Sprague Dawley, plasma, PO, 10 mg/kg, mean
smiles,measurement,setting,value
"Cc1ccnc(Nc2cccc(-c3cnc(N4CCNC(=O)C45CC5)o3)c2)n1 [Compound 001, 4-{5-[3-(4-Methyl-pyrimidin-2-ylamino)-phenyl]-oxazol-2-yl}-4,7-diaza-spiro[2.5]octan-8-one]",IC50,"[1]; enzymatic determination, read-out: Kinase activity profile IC50 Syk",41 nM
same,IC50,[1]; read-out: Syk (IC50),< 500 nM
same,IL6 Cytokine Release (% relative to control Ag + SCF),[2]; Ag + SCF + 0.01 μM of compound,89%
same,IL6 Cytokine Release (Relative Fluorescence Units),[2]; Ag + SCF + 0.01 μM of compound,756.5 Relative Fluorescence Units
same,IL6 Cytokine Release (% relative to control Ag + SCF),[2]; Ag + SCF + 0.1 μM of compound,29%
same,IL6 Cytokine Release (Relative Fluorescence Units),[2]; Ag + SCF + 0.1 μM of compound,249 Relative Fluorescence Units
same,IL6 Cytokine Release (% relative to control Ag + SCF),[2]; Ag + SCF + 1 μM of compound,6%
same,IL6 Cytokine Release (Relative Fluorescence Units),[2]; Ag + SCF + 1 μM of compound,54 Relative Fluorescence Units
same,IC50,"[2]; Mus musculus, BMMC, Ag + SCF stimulated BMMCs, read-out: IL-6 release IC50",~50 nM
same,IC50 at 48 h,"[3]; 48 h, read-out: Drug-induced cytotoxicity IC50, Hu-CM",10000 nM
same,"viability at 48 h, 1 µM","[3]; primary human adult cardiomyocytes, 1 μM, read-out: % cell viable at 1 μM, Hu-CM",14%
same,ATP production relative to DMSO (100%) Mito ToxGlo,[4],104%
same,Cytotoxicity relative to DMSO (0%) Mito ToxGlo,[4],11%
same,ATP production relative to DMSO (100%) Mito ToxGlo,[4]; listed as compound 001,104%
same,Cytotoxicity relative to DMSO (0%) Mito ToxGlo,[4]; listed as compound 001,11%
same,mutagenic activity,[5],did not show any mutagenic activity
same,Cl,"[6]; PO, 10 mg/kg, mean",17 mL/min/kg
same,Vd,"[6]; PO, 10 mg/kg, mean",2.9 L/kg
same,Cmax,[6]; [7],869 ng/mL
same,Tmax,[6]; [7],0.083 h
same,clearance,[6]; [7],15 mL/min/kg
same,half-life,[6]; [7],0.6 h
same,AUC,[6]; [7],1060 ng·h/mL
same,Vd,"[6]; male, Sprague Dawley, plasma, IV, 2 mg/kg, mean, read-out: Vd",0.9 L/kg
same,bioavailability,"[6]; male, Sprague Dawley, plasma, PO 10 mg/kg vs IV 2 mg/kg, read-out: F24 (absolute bioavailability)",97.5%
same,Cmax,[6]; [8],122 ng/mL
same,Tmax,[6]; [8],3 h
same,half-life,[6]; [8],2.1 h
same,AUC,[6]; [8],1030 ng·h/mL
